This note sets out measurements from patent publication EP0162592B1, “Heterocyclic amino compounds” (GLAXO GROUP LIMITED, priority 1984, dated 1985).

Each structure is given as a SMILES string. Where a name gives a salt, the structure may show the parent alone. A value given as a limit tells only on which side of the number the result lay.

The test system of this assay is α1-adrenoreceptor. The assay can be described thus: a1-Adrenoreceptor antagonist action: prevention of phenylephrine contractions in rat isolated anococcygeus muscle (Schild analysis). The assay is classed as cell-based. As to conditions: agonist phenylephrine, KB = concentration shifting the agonist log10 (concentration)/response curve to the right by a factor of 2, read-out: KB value at a,-adrenoreceptors. Here is the method: The a-adrenoreceptor-type selectivity of the compounds of general formula (I) is similarly assessed by measuring the ability to produce a parallel shift to the right of the logio (concentration)/response curve for the a,-adrenoreceptor agonist phenylephrine. The a,-adrenoreceptor-mediated responses of phenylephrine measured were contractions of the rat isolated anococcygeus muscle (Leighton, Butz & Parameter, Eur.J.Pharmac., 1979, 58 27-38).
Compounds were tested for their ability to prevent the action of α1-adrenoreceptor agonist phenylephrine in the rat isolated anococcygens muscle (Leighton, Butz & Parmeter, Eur. J. Pharmac., 1979 58 27-38). Antagonism of the effect of phenylephrine was quantified by measuring the parallel shift to the right of the phenylephrine log10 (concentration)/response curve in the presence of increasing concentrations of the test compound.
In (1) and (2) potency and competiveness of antagonism were determined by the method of Arunlakshana & Schild (Br. J. Pharmac. 1959, 14 48-58).

A word on the Kb: it is the equilibrium dissociation constant of an antagonist, usually derived from a functional assay. For the compound `c1ccc2c(c1)C[C@H]1CNC[C@@H]1O2` (racemic) [Example 2, (±)-trans-1,2,3,3a,9,9a-Hexahydro[1]benzopyrano[2,3-c]pyrrole, hydrochloride], the Kb was over 10 µM.
